Columns and labels:
zebrafish Mate4 [1] = target: T1, zebrafish Mate4 (Danio rerio, UniProt U3Q0C3); assay: DAPI inhibition assay, Mate4; type: cell-based; settings: Mate4; inhibition of DAPI (1 μM) uptake; n = 3; NE = no effect in the compound solubility range; read-out: IC50
Experimental: (§1) HEK293T cells were transiently transfected as described previously[31] using the PEI (polyethyleneimine) reagent in 48-well plates. Cells were in parallel transfected with pcDNA3.1/His/LacZ plasmid and transfection efficiency was evaluated 24 h after transfection with the LacZ staining protocol.
(§2) HEK293T cells overexpressing respective single zebrafish Mate transporter were used for further experiments. […] DAPI fluorescence was measured at 360 and 460 nm […], respectively. The uptake into vector-transfected HEK293T cells (mock cells) was subtracted to obtain transporter-specific uptake.
(§3) Inhibition assays using DAPI as a fluorescent substrate were performed in the same transport medium. […] Compounds tested for interaction were checked using at least four concentrations but only a representative concentration (with the highest response or the largest concentration in solubility range) is shown.
(§4) For the purpose of IC50 calculations, data were fitted to the sigmoidal four-parameter dose-response model (variable slope),

zebrafish Mate6 [2] = target: T2, zebrafish Mate6 (Danio rerio, UniProt A1L2E7); assay: DAPI inhibition assay, Mate6; type: cell-based; settings: Mate6; inhibition of DAPI (1 μM) uptake; n = 3; NE = no effect in the compound solubility range; read-out: IC50
Experimental: as §1, §2, §3, §4

zebrafish Mate7 [3] = target: T3, zebrafish Mate7 (Danio rerio, UniProt U3PTD6); assay: DAPI inhibition assay, Mate7; type: cell-based; settings: Mate7; inhibition of DAPI (2.5 μM) uptake; n = 3; NE = no effect in the compound solubility range; read-out: IC50
Experimental: as §1, §2, §3, §4

zebrafish Mate8 [4] = target: T4, zebrafish Mate8 (Danio rerio, UniProt A0A8M6YZ09); assay: DAPI inhibition assay, Mate8; type: cell-based; settings: Mate8
Experimental: as §1, §2, §3, §4

human MATE1 = human MATE1 ref 18; cited from earlier work
zebrafish Mate3 [5] = target: T5, zebrafish Mate3 (Danio rerio, UniProt A1L1P9); assay: DAPI inhibition assay, Mate3; type: cell-based; design: expressed in transfected cells; host or cells: HEK293T; settings: Mate3; inhibition of DAPI (2.5 μM) uptake; n = 3; NE = no effect in the compound solubility range; read-out: IC50
T5 sequence (A1L1P9 1-590): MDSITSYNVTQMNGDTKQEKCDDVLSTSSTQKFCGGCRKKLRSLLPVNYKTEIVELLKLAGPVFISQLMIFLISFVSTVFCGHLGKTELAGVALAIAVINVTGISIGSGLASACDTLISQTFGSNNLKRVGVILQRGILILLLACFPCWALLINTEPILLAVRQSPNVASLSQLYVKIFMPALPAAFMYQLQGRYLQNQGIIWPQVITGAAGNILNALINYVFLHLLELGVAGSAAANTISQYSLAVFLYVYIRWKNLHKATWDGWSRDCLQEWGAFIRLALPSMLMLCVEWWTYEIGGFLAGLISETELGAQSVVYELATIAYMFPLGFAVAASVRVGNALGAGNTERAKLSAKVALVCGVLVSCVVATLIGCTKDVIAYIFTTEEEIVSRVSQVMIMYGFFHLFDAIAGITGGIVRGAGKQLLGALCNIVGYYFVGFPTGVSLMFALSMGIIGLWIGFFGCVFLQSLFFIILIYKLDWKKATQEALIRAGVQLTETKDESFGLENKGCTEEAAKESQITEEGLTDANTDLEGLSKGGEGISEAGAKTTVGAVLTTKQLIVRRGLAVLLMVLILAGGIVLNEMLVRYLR
Experimental: as §1, §2, §3, §4

zebrafish Mate3 [6] = target: T5, zebrafish Mate3; assay: Uptake of fluorescent dyes by HEK293T cells overexpressing zebrafish Mate3; settings: dye uptake, mean ± SD; for Km: triplicate, representative experiment
Experimental: as §1
(§5) HEK293T cells overexpressing respective single zebrafish Mate transporter were used for further experiments. Cell uptake of all substrates except DAPI was measured in sodium based transport medium (145 mM NaCl, 3 mM KCl, 1 mM CaCl2, 0.5 mM MgCl2, 5 mM glucose and 10 mM Tris, pH 8.4). Briefly, after 5 minute incubation period, the cells were rapidly washed two times with ice-cold phosphate-buffered saline (PBS), lysed in 250 μL of 0.1% sodium dodecyl sulphate for 30 min and transferred to the black 96-well plates where fluorescence was measured using the microplate reader (Infinite M200, Tecan, Salzburg, Austria) at following excitation and emission wavelengths: ASP^+, 450/590 nm; EtBr, 535/590 nm; Rh123, 485/530 nm; berberine, 355/540 nm; amiloride, 366/418 nm. […] DAPI fluorescence was measured at 360 and 460 nm […], respectively. The uptake into vector-transfected HEK293T cells (mock cells) was subtracted to obtain transporter-specific uptake.
(§6) Calibration curves for all substrates were generated in 0.1% SDS and in the cell matrix dissolved in 0.1% SDS. […] Using the calibration curves, uptake was expressed as pmol of substrate per mg of protein per minute. Total cell protein content was determined according to the Bradford method.
(§7) All assays were performed in 3–5 independent experiments run in triplicates. Data shown on related figures represent mean ± standard errors (SE) or standard deviations (SD). All calculations were performed using GraphPad Prism 5.00 for Windows (GraphPad Software, San Diego, California, USA) as described below. The kinetic parameters, Km and Vmax values were calculated using the Michaelis-Menten equation,
where V is velocity (picomoles of substrate per milligram of proteins per minute), Vmax is maximal velocity, [S] is substrate concentration and Km is the Michaelis Menten constant. The uptake into vector-transfected HEK293 cells was subtracted to obtain transporter-specific uptake.

zebrafish Mate4 [7] = target: T1, zebrafish Mate4; assay: Uptake of fluorescent dyes by HEK293T cells overexpressing zebrafish Mate4; settings: dye uptake, mean ± SD, NT = no transport found
Experimental: as §1, §5, §6
as §7, with “equation, […]” for “equation,”

zebrafish Mate6 [8] = target: T2, zebrafish Mate6; assay: Uptake of fluorescent dyes by HEK293T cells overexpressing zebrafish Mate6; settings: dye uptake, mean ± SD
Experimental: as §1, §5, §6
as §7, with “equation, […]” for “equation,”

zebrafish Mate7 [9] = target: T3, zebrafish Mate7; assay: Uptake of fluorescent dyes by HEK293T cells overexpressing zebrafish Mate7; settings: dye uptake, mean ± SD
Experimental: as §1, §5, §6
as §7, with “equation, […]” for “equation,”

zebrafish Mate8 [10] = target: T4, zebrafish Mate8; assay: Uptake of fluorescent dyes by HEK293T cells overexpressing zebrafish Mate8; settings: dye uptake, mean ± SD, NT = no transport found
Experimental: as §1, §5, §6
as §7, with “equation, […]” for “equation,”

[11] = substrate: CN(C)c1ccc(/C=C/c2cc[n+](C)cc2)cc1; assay: cells, lysate or membranes; settings: dye uptake, HEK293T, mean ± SD
Experimental: (§8) Calibration curves for all substrates were generated in 0.1% SDS and in the cell matrix dissolved in 0.1% SDS. Resulting linear calibration curves were the same in the SDS and in the dissolved cell matrix. Using the calibration curves, uptake was expressed as pmol of substrate per mg of protein per minute. Total cell protein content was determined according to the Bradford method[33].
(§9) All assays were performed in 3–5 independent experiments run in triplicates. […] All calculations were performed using GraphPad Prism 5.00 for Windows (GraphPad Software, San Diego, California, USA) as described below. The kinetic parameters, Km and Vmax values were calculated using the Michaelis-Menten equation,

[12] = substrate: COC(=O)c1ccccc1-c1c2ccc(=N)cc-2oc2cc(N)ccc12; assay: cells, lysate or membranes; settings: dye uptake, HEK293T, mean ± SD
Experimental: as §8, §9

[13] = substrate: COc1ccc2cc3[n+](cc2c1OC)CCc1cc2c(cc1-3)OCO2; assay: cells, lysate or membranes; settings: dye uptake, HEK293T, mean ± SD
Experimental: as §8, §9

[14] = substrate: N=C(N)NC(=O)c1nc(Cl)c(N)nc1N; assay: cells, lysate or membranes; settings: dye uptake, HEK293T, mean ± SD
Experimental: as §8, §9

[15] = other: Mate3, triplicate, representative experiment

T4 sequence (A0A8M6YZ09 entry or part of it): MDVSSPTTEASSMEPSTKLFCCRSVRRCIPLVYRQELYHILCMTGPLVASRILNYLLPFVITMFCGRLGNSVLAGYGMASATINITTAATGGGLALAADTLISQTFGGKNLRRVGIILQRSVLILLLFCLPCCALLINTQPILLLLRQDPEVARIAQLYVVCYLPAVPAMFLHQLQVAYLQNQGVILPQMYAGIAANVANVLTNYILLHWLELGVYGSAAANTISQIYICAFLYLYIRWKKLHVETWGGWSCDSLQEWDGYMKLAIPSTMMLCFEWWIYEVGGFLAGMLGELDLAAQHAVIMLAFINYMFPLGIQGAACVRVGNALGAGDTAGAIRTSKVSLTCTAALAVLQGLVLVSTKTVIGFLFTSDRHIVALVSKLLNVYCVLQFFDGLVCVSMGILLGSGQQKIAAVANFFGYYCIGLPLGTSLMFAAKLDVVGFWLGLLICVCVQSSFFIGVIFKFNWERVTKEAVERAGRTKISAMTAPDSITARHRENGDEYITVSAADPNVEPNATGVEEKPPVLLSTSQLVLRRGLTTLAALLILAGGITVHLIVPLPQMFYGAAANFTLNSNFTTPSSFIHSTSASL
T1 sequence (U3Q0C3 entry or part of it): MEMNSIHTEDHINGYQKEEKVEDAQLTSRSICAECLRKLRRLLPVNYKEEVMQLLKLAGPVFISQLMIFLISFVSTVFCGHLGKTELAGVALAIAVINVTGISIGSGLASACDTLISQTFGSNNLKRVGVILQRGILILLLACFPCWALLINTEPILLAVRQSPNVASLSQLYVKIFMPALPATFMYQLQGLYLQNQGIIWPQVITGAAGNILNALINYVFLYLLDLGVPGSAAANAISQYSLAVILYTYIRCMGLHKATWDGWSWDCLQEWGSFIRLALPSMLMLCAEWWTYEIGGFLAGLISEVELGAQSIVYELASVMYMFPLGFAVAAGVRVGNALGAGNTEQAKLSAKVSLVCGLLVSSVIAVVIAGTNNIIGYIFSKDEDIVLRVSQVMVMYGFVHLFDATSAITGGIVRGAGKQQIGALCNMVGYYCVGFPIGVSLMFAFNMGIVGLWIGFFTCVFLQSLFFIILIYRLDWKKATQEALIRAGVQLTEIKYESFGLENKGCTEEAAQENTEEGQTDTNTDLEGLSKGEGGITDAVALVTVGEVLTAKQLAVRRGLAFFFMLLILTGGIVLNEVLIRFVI

C[n+]1ccc(-c2ccccc2)cc1 [MPP^+, 1-methyl-4-phenylpyridinium, reference compound]
IC50 (zebrafish Mate4 [1]): 434 µM | IC50 (zebrafish Mate6 [2]): 27.9 µM | IC50 (zebrafish Mate7 [3]): 93.6 µM | interaction strength (zebrafish Mate8 [4]; class by IC50 of DAPI uptake inhibition): weak (IC50 of 100–999 μM was classified as weak interaction) | IC50 (zebrafish Mate8 [4]; inhibition of DAPI (1 μM) uptake, n = 3, NE = no effect in the compound solubility range, read-out: IC50): 978 µM | Km (human MATE1): 100 µM | IC50 (zebrafish Mate3 [5]): 2430 µM

N=C(N)c1ccc(-c2cc3ccc(C(=N)N)cc3[nH]2)cc1 [DAPI, 4′,6-diamidino-2-phenylindole]
vmax (zebrafish Mate3 [6]): 436 ± 21.8 pmol/mg protein/min | Km (zebrafish Mate3 [6]): 2.83 ± 0.34 µM | Km (zebrafish Mate4 [7]): 0.29 ± 0.04 µM | vmax (zebrafish Mate4 [7]): 47.7 ± 2.27 pmol/mg protein/min | Km (zebrafish Mate6 [8]): 0.26 ± 0.05 µM | vmax (zebrafish Mate6 [8]): 44.3 ± 1.80 pmol/mg protein/min | Km (zebrafish Mate7 [9]): 1.44 ± 0.19 µM | vmax (zebrafish Mate7 [9]): 193 ± 9.15 pmol/mg protein/min | Km (zebrafish Mate8 [10]): 0.55 ± 0.07 µM | vmax (zebrafish Mate8 [10]): 24.4 ± 0.70 pmol/mg protein/min

COC(=O)c1ccccc1-c1c2ccc(=N)cc-2oc2cc(N)ccc12 [Rh123, rhodamine 123]
vmax (zebrafish Mate3 [6]): 105 ± 5.16 pmol/mg protein/min | vmax (zebrafish Mate4 [7]): 1.03 ± 0.03 pmol/mg protein/min | vmax (zebrafish Mate6 [8]): 55.6 ± 1.48 pmol/mg protein/min | vmax (zebrafish Mate7 [9]): 4.79 ± 0.17 pmol/mg protein/min | vmax (zebrafish Mate8 [10]): 12.3 ± 0.61 pmol/mg protein/min

CC[n+]1c(-c2ccccc2)c2cc(N)ccc2c2ccc(N)cc21 [EtBr, ethidium bromide]
vmax (zebrafish Mate3 [6]): 825 ± 25.5 pmol/mg protein/min | Km (zebrafish Mate3 [6]): 5.56 ± 0.5 µM

B1: zebrafish Mate6 (Danio rerio) (protein)
chain: MPEAGGPLANTEQITEATAPSSKLLGCSCVRRWVPLAYREELYHVLCLTGPLLISRILSFLLPFVTTIFCGHLGNAELAGYALASATVNVTTTATGCGLALACDTLVSQTFGSKNHKRVGEILQRSMLILLLFCLPCWAILINAESILLALKQEPEVARIAQLYVTAYLPAVPAMFLHYLQVSYLQNQGIILPQMYTAVAANILNVATNYILLHAMKLGVKGSAAANSISQITICLLLFAYIRWKKLHLKTWGGWSTASLQEWGSYMKLAIPSTLMLCFEWWIYEIGGFLAGMLGEVDLAAQHVLLEIGSIAYMFPLGVHAAACVRVGNALGAGDTVRALITSKVTLMISGILAFAQGIGIALTKSKLGYIFTSDESIVAIVSQNLTLYVFLQFFDALVCVCSGILLGAGKQKIAAVSNLICYYCIGLPVGISLMFLAELRILGLWLGLLICVIIQTCFFTTLIFKLDWKKVTEQAQKRAGKHAKVVCLPKAPLIGPVVETLVSEDQDNTEQTDGTSSIPEPWDDITGNKAQLTSSSSEVSSYIQVSTQDQDKLASECGEGQPKVLLSIKQLVLRRGLTLLITLLILIAGITVHVVCPLPEHSVQRQSNFTNDSGNFSTPFSILNITMS
Km ([11]; other: Mate6): 6.23 ± 1.02 µM | Vmax ([11]; other: Mate6): 160 ± 10.8 pmol/mg protein/min | Km ([12]; other: Mate6): 1.73 ± 0.16 µM | Km ([13]; other: Mate6): 8.35 ± 1.00 µM | Vmax ([13]; other: Mate6): 215 ± 9.72 pmol/mg protein/min | Km ([14]; other: Mate6): 11.1 ± 2.12 µM | Vmax ([14]; other: Mate6): 24.8 ± 1.54 pmol/mg protein/min

B2: zebrafish Mate3 (Danio rerio) (protein)
chain: T5 sequence (A1L1P9 1-590)
Km [11, 15]: 13.4 ± 1.55 µM | Vmax [11, 15]: 296 ± 14.0 pmol/mg protein/min | Km [12, 15]: 8.52 ± 1.25 µM | Km [13, 15]: 14.4 ± 5.14 µM | Vmax [13, 15]: 242 ± 46.9 pmol/mg protein/min | Km [14, 15]: 33.4 ± 4.57 µM | Vmax [14, 15]: 53.1 ± 4.0 pmol/mg protein/min

B3: zebrafish Mate7 (Danio rerio) (protein)
chain: MDVSSPGTDNLSMEPSAKLFCCGFMRRCIPLVYREELYHILRMTGPLLVCRFLNFLLFFVVTMFCGRLGNTVLAGYAMASATINVTAAATGLGLALACDTLVSQTFGSKNLLRVGIILQRGIVILTLFSLPCWALLVNTQPLLLYLGQEPEVARIAQLYVVVYLPAIPAMFLYQLQLSYLQNQGVIKPQMYASAVANVANVIANYFLLYWWDFGVYGSAAANTFAQVFNCFALFCFIRWQKLHEKTWGGWSLEALQDWGSYMKLAIPSTLMTCFEWWIYEVGGFLAGMLSEVDLAAQHVVIMLAYINYMIPLGMQGAACVRVGNALGAGETAAAILTSKVSLISAAVIAIIQGFVLGSTKTVIGYIFTSDESITELVSQLLNIYCPLQFFNGILCVGMGVLLGTGQQKIAAIANLFGYYCVGLPSSIVLMFTAGLQVAGFWLGLLIAVFLLAIFFTVAIFKLNWKKMTEEAIARTGKSANGAANGTMTTEFCSNHRNSFYQVVLNAENGNGYMVVSSQDQDERLNSTAVPEEPNVTGVEEKPPVLLSTTQLVLRRGLTTVAALLILAVGIIIHLTVPLPQVSYGAGANYTVDSNFTTANPIYSTSFI
Km ([11]; other: Mate7): 3.51 ± 0.27 µM | Vmax ([11]; other: Mate7): 52.3 ± 1.26 pmol/mg protein/min | Km ([12]; other: Mate7): 0.22 ± 0.03 µM | Km ([13]; other: Mate7): 1.76 ± 0.38 µM | Vmax ([13]; other: Mate7): 28.0 ± 2.39 pmol/mg protein/min | Km ([14]; other: Mate7): 20.6 ± 4.20 µM | Vmax ([14]; other: Mate7): 19.8 ± 1.84 pmol/mg protein/min
